Values after ≈ are worked out from the molar mass of the structure shown.
How the values were obtained:
[1] = test system: Mycobacterium tuberculosis variant bovis; experiment: Antimycobacterial activity against Mycobacterium bovis BCG ATCC 35734 after 5 days by broth dilution method; format: functional; conditions: ATCC 35734, 120 h
[2] = test system: Mycobacterium tuberculosis variant bovis; experiment: Antimycobacterial activity against Mycobacterium bovis BCG ATCC 35734 assessed as growth inhibition at 10 uM after 5 days relative to control; format: functional; conditions: ATCC 35734, 120 h, read-out: GI

Row | SMILES | MIC50 [1] [µM] | MIC90 [1] [µM] | inhibition of growth at 10 µM [2] [%]
1 | CCCCCCCCn1cc(CN2CCC3(CC2)OCCO3)c2ccc(F)cc21 | 3 (≈ 1.21 µg/mL) | 5 (≈ 2.01 µg/mL) | 99
2 | CCCCCCCCn1cc(CN2CCC3(CC2)OCCO3)c2c(OC)cccc21 | 6 (≈ 2.49 µg/mL) | 9 (≈ 3.73 µg/mL) | 99
3 | CCCCCCCCn1cc(CN2CCC3(CC2)OCCO3)c2cc(F)ccc21 | 3 (≈ 1.21 µg/mL) | 5 (≈ 2.01 µg/mL) | 99
4 | CCCCCCCCn1cc(CN(C)C)c2cc(F)ccc21 | 14 (≈ 4.26 µg/mL) | 20 (≈ 6.09 µg/mL) | 99
5 | CCCCCCCCn1ccc2cc(F)ccc21 | > 50 | > 50 | 99
6 | CCCCCCCCn1cc(CN(CC)CC)c2cc(F)ccc21 | 10 (≈ 3.33 µg/mL) | 36 (≈ 12 µg/mL) | 99
7 | CCCCCCCCn1cc(CN2CCC3(CC2)OCCO3)c2c(F)cccc21 | 3 (≈ 1.21 µg/mL) | 6 (≈ 2.42 µg/mL) | 99
8 | CCCCCCCCn1cc(CN2CCCCCC2)c2cccc(F)c21 | 5 (≈ 1.79 µg/mL) | 8 (≈ 2.87 µg/mL) | 99
9 | CCCCCCCCCCn1cc(CN2CCCCCC2)c2c(F)cccc21 | 10 (≈ 3.87 µg/mL) | 15 (≈ 5.8 µg/mL) | 99
10 | CCCCCCn1cc(CN2CCCCCC2)c2c(F)cccc21 | 8 (≈ 2.64 µg/mL) | 13 (≈ 4.3 µg/mL) | 99
11 | Fc1ccc2[nH]cc(CN3CCCCC3)c2c1 | > 50 | > 50 | 99
12 | CCCCCCCCn1cc(CN2CCCCC2)c2ccc(F)cc21 | 6 (≈ 2.07 µg/mL) | 12 (≈ 4.13 µg/mL) | 99
13 | CCCCCCCCn1cc(CNCCC)c2cc(F)ccc21 | 10 (≈ 3.18 µg/mL) | 20 (≈ 6.37 µg/mL) | 99
14 | CC(C)=CCC/C(C)=C/Cn1cc(CN2CCC3(CC2)OCCO3)c2cc(F)ccc21 | 5 (≈ 2.13 µg/mL) | 9 (≈ 3.84 µg/mL) | 99
15 | CCCCCCCCn1cc(CN2CCCCCC2)c2ccc(OC)cc21 | 4 (≈ 1.48 µg/mL) | 6 (≈ 2.22 µg/mL) | 99
16 | CCCCCCCCn1cc(CN2CCCCC2)c2cc(Br)ccc21 | 5 (≈ 2.03 µg/mL) | 9 (≈ 3.65 µg/mL) | 99
17 | CCn1cc(CN2CCCCCC2)c2c(F)cccc21 | > 50 | > 50 | 99
18 | CCCCCCCCn1cc(CN2CCC3(CC2)OCCO3)c2cccc(F)c21 | 3 (≈ 1.21 µg/mL) | 7 (≈ 2.82 µg/mL) | 99
19 | CCCCNC(=O)Cn1cc(CN2CCCCC2)c2cc(F)ccc21 | > 50 | > 50 | 99
20 | CCCCCCCCn1cc(CN2CCCCC2)c2cccc(OC)c21 | 8 (≈ 2.85 µg/mL) | 11 (≈ 3.92 µg/mL) | 99
21 | CCCCCCCCn1cc(CN2CCCCCC2)c2c(OC)cccc21 | 6 (≈ 2.22 µg/mL) | 11 (≈ 4.08 µg/mL) | 99
22 | CC(C)=CCC/C(C)=C/Cn1cc(CN2CCCCC2)c2cccnc21 | > 50 | > 50 | 99
23 | CCCCCCCCn1ccc2c(F)cccc21 | > 50 | > 50 | 99
24 | CCCCCCCCn1cc(CN2CCCCCC2)c2cc(OC)ccc21 | 4 (≈ 1.48 µg/mL) | 5 (≈ 1.85 µg/mL) | 99

Row | SMILES | MIC50 [1] [µM] | MIC90 [1] [µM] | inhibition of growth at 10 µM [2] [%]
25 | CC(C)=CCC/C(C)=C/Cn1cc(CN2CCCCCC2)c2cc(F)ccc21 | 4 (≈ 1.53 µg/mL) | 7 (≈ 2.68 µg/mL) | 99
26 | CCCCCCCCn1cc(C(=O)N2CCCCCC2)c2cc(F)ccc21 | > 50 | > 50 | 99
27 | CCN1CCN(Cc2cn(C/C=C(\C)CCC=C(C)C)c3ccc(F)cc23)CC1 | 13 (≈ 5.17 µg/mL) | 25 (≈ 9.94 µg/mL) | 99
28 | CCCCCCCCn1cc(CN2CCCC2)c2cc(F)ccc21 | 10 (≈ 3.3 µg/mL) | 24 (≈ 7.93 µg/mL) | 99
29 | CCCCCCCCn1cc(CNC23CC4CC(CC(C4)C2)C3)c2c(F)cccc21 | 2 (≈ 0.821 µg/mL) | 3 (≈ 1.23 µg/mL) | 99
30 | CCCCCCCCn1cc(CN2CCCCC2)c2cc(Cl)ccc21 | 5 (≈ 1.8 µg/mL) | 9 (≈ 3.25 µg/mL) | 99
31 | CC(C)=CCC/C(C)=C/Cn1cc(C(=O)N2CCCCC2)c2cc(F)ccc21 | > 50 | > 50 | 99
32 | CCN(CC)Cc1cn(C/C=C(\C)CCC=C(C)C)c2ccc(F)cc12 | 13 (≈ 4.63 µg/mL) | 24 (≈ 8.56 µg/mL) | 99
33 | CCCCCCCCn1cc(CNC23CC4CC(CC(C4)C2)C3)c2ccc(OC)cc21 | 3 (≈ 1.27 µg/mL) | 6 (≈ 2.54 µg/mL) | 99
34 | CC(C)=CCC/C(C)=C/Cn1ccc2cc(F)ccc21 | > 50 | > 50 | 99
35 | CCCCCCCCn1cc(CN2CCC(C)CC2)c2cc(F)ccc21 | 4 (≈ 1.43 µg/mL) | 6 (≈ 2.15 µg/mL) | 99
36 | CCCCCCCCn1cc(CN2CCCCCC2)c2cccc(OC)c21 | 6 (≈ 2.22 µg/mL) | 10 (≈ 3.71 µg/mL) | 99
37 | CCCCCCCCn1cc(CN2CCC(C)CC2)c2ccc(OC)cc21 | 3 (≈ 1.11 µg/mL) | 5 (≈ 1.85 µg/mL) | 99
38 | CCCCCCCCn1cc(CN2CCCCC2)c2ccc(OC)cc21 | 7 (≈ 2.5 µg/mL) | 13 (≈ 4.64 µg/mL) | 99
39 | CC(C)=CCC/C(C)=C/Cn1cc(CN2CCOCC2)c2cc(F)ccc21 | 15.5 (≈ 5.74 µg/mL) | > 50 | 99
40 | CCCN(CC)Cc1cn(C/C=C(\C)CCC=C(C)C)c2ccc(F)cc12 | 13 (≈ 4.82 µg/mL) | 25 (≈ 9.26 µg/mL) | 99
41 | Fc1cccc2[nH]cc(CN3CCCCCC3)c12 | > 50 | > 50 | 99
42 | CCCCCCCCn1cc(CN2CCC3(CC2)OCCO3)c2cccc(OC)c21 | 28 (≈ 11.6 µg/mL) | 42 (≈ 17.4 µg/mL) | 99
43 | CCCCCCCCn1cc(CN2CCCCC2)c2c(OC)cccc21 | 16 (≈ 5.7 µg/mL) | 35 (≈ 12.5 µg/mL) | 99
44 | O=C(Cn1cc(CN2CCCCC2)c2cc(F)ccc21)NC1CC1 | > 50 | > 50 | 99
45 | CCCCCCCCn1cc(CNC23CC4CC(CC(C4)C2)C3)c2ccc(F)cc21 | 3 (≈ 1.23 µg/mL) | 5 (≈ 2.05 µg/mL) | 99
46 | Fc1ccc2c(c1)c(CN1CCCCC1)cn2CCCOc1ccccc1 | 19 (≈ 6.96 µg/mL) | 50 (≈ 18.3 µg/mL) | 99
47 | CC(C)=CCC/C(C)=C/Cn1cc(CN2CCCCC2)c2cc(Br)ccc21 | 8 (≈ 3.44 µg/mL) | 10 (≈ 4.29 µg/mL) | 99
48 | CCCCCCCCn1cc(CNC2CCCC2)c2cc(F)ccc21 | 6 (≈ 2.07 µg/mL) | 21 (≈ 7.23 µg/mL) | 99

Row | SMILES | MIC50 [1] [µM] | MIC90 [1] [µM] | inhibition of growth at 10 µM [2] [%]
49 | CCCCN(CCCC)Cc1cn(C/C=C(\C)CCC=C(C)C)c2ccc(F)cc12 | 13 (≈ 5.36 µg/mL) | 25.5 (≈ 10.5 µg/mL) | 99
50 | CCCCCCCCn1cc(CN2CCCCC2)c2cc(F)ccc21 | 6 (≈ 2.07 µg/mL) | 11 (≈ 3.79 µg/mL) | 99
51 | CCCCCCCCn1cc(CN2CCN(CC)CC2)c2cc(F)ccc21 | 13 (≈ 4.86 µg/mL) | 32 (≈ 12 µg/mL) | 99
52 | CCCCCCCCn1cc(CNC23CC4CC(CC(C4)C2)C3)c2c(OC)cccc21 | 6 (≈ 2.54 µg/mL) | 12 (≈ 5.07 µg/mL) | 99
53 | CC(C)=CCC/C(C)=C/Cn1cc(CNC23CC4CC(CC(C4)C2)C3)c2cc(F)ccc21 | 17.5 (≈ 7.61 µg/mL) | 25.5 (≈ 11.1 µg/mL) | 99
54 | CCCCCCCCn1cc(CN(CC)CCC)c2cc(F)ccc21 | 7 (≈ 2.43 µg/mL) | 39 (≈ 13.5 µg/mL) | 99
55 | CCCCCCCCn1cc(CN(CCC)CCC)c2cc(F)ccc21 | 11 (≈ 3.97 µg/mL) | 35 (≈ 12.6 µg/mL) | 99
56 | CCCCCCCCn1cc(CN2CCSCC2)c2cc(F)ccc21 | 11 (≈ 3.99 µg/mL) | > 50 | 99
57 | CCCCCCCCn1cc(CN2CCCCCC2)c2ccc(F)cc21 | 4 (≈ 1.43 µg/mL) | 6 (≈ 2.15 µg/mL) | 99
58 | CC(C)=CCC/C(C)=C/Cn1cc(CN2CCS(=O)(=O)CC2)c2cc(F)ccc21 | > 50 | > 50 | 99
59 | CCCCCCCCn1cc(CN2CCCCC2)c2cc(OC)ccc21 | 5 (≈ 1.78 µg/mL) | 7.5 to 8 (≈ 2.67 to 2.85 µg/mL) | 99
60 | CCCCCCCCn1cc(CN2CCCCC2)c2cccc(F)c21 | 8 (≈ 2.76 µg/mL) | 11 (≈ 3.79 µg/mL) | 99
61 | CCCCCCCCn1cc(CN2CCC3(CC2)OCCO3)c2cc(OC)ccc21 | 5 (≈ 2.07 µg/mL) | 9 (≈ 3.73 µg/mL) | 99
62 | CC(C)=CCC/C(C)=C/Cn1cc(CN2CCCC2)c2cc(F)ccc21 | 13 (≈ 4.61 µg/mL) | 25 (≈ 8.86 µg/mL) | 99
63 | CCCCCCCCn1cc(CN2CCOCC2)c2cc(F)ccc21 | 16 (≈ 5.54 µg/mL) | > 50 | 99
64 | CCCCCCCCn1cc(CN2CCN(C)CC2)c2cc(F)ccc21 | 13 (≈ 4.67 µg/mL) | 36 (≈ 12.9 µg/mL) | 99
65 | CCCCCCCCCCCCn1cc(CN2CCCCCC2)c2c(F)cccc21 | 7 (≈ 2.9 µg/mL) | 10 (≈ 4.15 µg/mL) | 99
66 | CCCCn1cc(CN2CCCCC2)c2cc(F)ccc21 | > 50 | 100 (≈ 28.8 µg/mL) | 99
67 | CCCCn1cc(CN2CCCCCC2)c2c(F)cccc21 | 10 (≈ 3.02 µg/mL) | 23 (≈ 6.96 µg/mL) | 99
68 | CCCCCCCCn1cc(CN(CCCC)CCCC)c2cc(F)ccc21 | 11 (≈ 4.27 µg/mL) | > 50 | 99
69 | CCCCCCCCn1cc(CNC23CC4CC(CC(C4)C2)C3)c2cccc(OC)c21 | 3 (≈ 1.27 µg/mL) | 8 (≈ 3.38 µg/mL) | 99
70 | CC(C)=CCC/C(C)=C/Cn1cc(CN2CCCCC2)c2ccccc21 | 3 (≈ 1.05 µg/mL) | 6 (≈ 2.1 µg/mL) | 99
